Test results as given in the supplement of paper PMC5662764.
± gives the standard deviation of the averaged measurements.

Columns and labels:
Test in all cases: normalised growth rate inhibition (GR value) relative to DMSO control (GR (1 = untreated growth, 0 = cytostasis, <0 = cytotoxic)); higher = less growth inhibition
Settings in all cases: 72 h
[1] = system: BT20
Description: (§1)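 Breast cancer cell lines (BT-20, Hs 578T, MCF 10A, MCF7, MDA-MB-231, SK-BR-3) were plated in 384-well plates and treated 24 h later with drugs at six concentrations (0.04-10 µM). Viable cells were counted by Hoechst/dead-cell-stain imaging at 0 and 72 h. Counts were normalised to DMSO controls on the same plate to give the relative cell count and the growth-rate inhibition (GR) value; technical plate triplicates were averaged for each biological replicate.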

[2] = system: HS578T
Description: as §1

[3] = system: MCF10A
Description: as §1

[4] = system: MCF7
Description: as §1

[5] = system: MDAMB231
Description: as §1

[6] = system: SKBR3
Description: as §1

| SMILES | normalised growth rate inhibition ([1]; 0.04 µM) | normalised growth rate inhibition ([1]; 0.12 µM) | normalised growth rate inhibition ([1]; 0.37 µM) | normalised growth rate inhibition ([1]; 1.11 µM) | normalised growth rate inhibition ([1]; 3.33 µM) | normalised growth rate inhibition ([1]; 10 µM) | normalised growth rate inhibition ([2]; 0.04 µM) | normalised growth rate inhibition ([2]; 0.12 µM) | normalised growth rate inhibition ([2]; 0.37 µM) | normalised growth rate inhibition ([2]; 1.11 µM) | normalised growth rate inhibition ([2]; 3.33 µM) | normalised growth rate inhibition ([2]; 10 µM) | normalised growth rate inhibition ([3]; 0.04 µM) | normalised growth rate inhibition ([3]; 0.12 µM) | normalised growth rate inhibition ([3]; 0.37 µM) | normalised growth rate inhibition ([3]; 1.11 µM) | normalised growth rate inhibition ([3]; 3.33 µM) | normalised growth rate inhibition ([3]; 10 µM) | normalised growth rate inhibition ([4]; 0.04 µM) | normalised growth rate inhibition ([4]; 0.12 µM) | normalised growth rate inhibition ([4]; 0.37 µM) | normalised growth rate inhibition ([4]; 1.11 µM) | normalised growth rate inhibition ([4]; 3.33 µM) | normalised growth rate inhibition ([4]; 10 µM) | normalised growth rate inhibition ([5]; 0.04 µM) | normalised growth rate inhibition ([5]; 0.12 µM) | normalised growth rate inhibition ([5]; 0.37 µM) | normalised growth rate inhibition ([5]; 1.11 µM) | normalised growth rate inhibition ([5]; 3.33 µM) | normalised growth rate inhibition ([5]; 10 µM) | normalised growth rate inhibition ([6]; 0.04 µM) | normalised growth rate inhibition ([6]; 0.12 µM) | normalised growth rate inhibition ([6]; 0.37 µM) | normalised growth rate inhibition ([6]; 1.11 µM) | normalised growth rate inhibition ([6]; 3.33 µM) | normalised growth rate inhibition ([6]; 10 µM) |
| --- | --- | --- | --- | --- | --- | --- | --- | --- | --- | --- | --- | --- | --- | --- | --- | --- | --- | --- | --- | --- | --- | --- | --- | --- | --- | --- | --- | --- | --- | --- | --- | --- | --- | --- | --- | --- |
| C=CC(=O)N1CCc2ccc(-n3c(=O)ccc4cnc5ccc(-c6cnn(C)c6)cc5c43)cc21 [QL-XII-47] | 0.669 ± 0.29 | 0.618 ± 0.31 | 0.351 ± 0.28 | 0.0671 ± 0.23 | -0.135 ± 0.077 | -0.259 ± 0.091 | 0.895 ± 0.091 | 0.854 ± 0.11 | 0.713 ± 0.15 | 0.438 ± 0.24 | 0.153 ± 0.14 | -0.127 ± 0.12 | 0.969 ± 0.021 | 0.953 ± 0.024 | 0.867 ± 0.11 | 0.683 ± 0.26 | 0.428 ± 0.32 | -0.127 ± 0.14 | 0.57 ± 0.16 | 0.35 ± 0.25 | 0.0387 ± 0.084 | -0.0941 ± 0.045 | -0.109 ± 0.017 | -0.188 ± 0.12 | 0.659 ± 0.12 | 0.541 ± 0.14 | 0.337 ± 0.15 | 0.109 ± 0.14 | -0.0169 ± 0.082 | -0.128 ± 0.12 | 0.516 ± 0.042 | 0.35 ± 0.12 | 0.0964 ± 0.17 | -0.108 ± 0.14 | -0.26 ± 0.18 | -0.3 ± 0.16 |
| Cc1cc(C(C)Nc2ccccc2)c2nc(N3CCOCC3)cc(=O)n2c1 (stereo not drawn) [TGX-221] | 0.914 ± 0.05 | 0.954 ± 0.032 | 1.01 ± 0.021 | 1.02 ± 0.052 | 1.06 ± 0.054 | 1.05 ± 0.026 | 0.9256 ± 0.0041 | 0.902 ± 0.044 | 0.91 ± 0.02 | 0.891 ± 0.029 | 0.597 ± 0.28 | 0.698 ± 0.093 | 0.968 ± 0.03 | 0.972 ± 0.039 | 0.971 ± 0.027 | 0.964 ± 0.033 | 0.591 ± 0.38 | 0.957 ± 0.08 | 0.82 ± 0.073 | 0.848 ± 0.018 | 0.96 ± 0.013 | 0.98 ± 0.034 | 0.79 ± 0.15 | 0.822 ± 0.076 | 0.779 ± 0.087 | 0.816 ± 0.083 | 0.826 ± 0.086 | 0.868 ± 0.042 | 0.691 ± 0.19 | 0.868 ± 0.03 | 0.681 ± 0.072 | 0.789 ± 0.049 | 0.907 ± 0.034 | 0.963 ± 0.036 | 0.961 ± 0.023 | 0.888 ± 0.03 |
| Nc1cccc(-c2cc3c(Oc4cccc(O)c4)ncnc3[nH]2)c1 [TWS-119] | 1.02 ± 0.034 | 0.994 ± 0.056 | 0.971 ± 0.055 | 0.885 ± 0.11 | 0.696 ± 0.096 | 0.0129 ± 0.081 | 1.02 ± 0.014 | 0.9855 ± 0.0042 | 0.978 ± 0.011 | 0.8808 ± 0.0081 | 0.707 ± 0.057 | -0.081 ± 0.15 | 1.02 ± 0.013 | 1.01 ± 0.011 | 1.02 ± 0.0082 | 1.02 ± 0.024 | 0.912 ± 0.11 | 0.0326 ± 0.084 | 1.06 ± 0.061 | 0.984 ± 0.053 | 0.991 ± 0.071 | 0.963 ± 0.079 | 0.616 ± 0.079 | -0.165 ± 0.1 | 0.975 ± 0.056 | 0.961 ± 0.07 | 0.929 ± 0.084 | 0.785 ± 0.056 | 0.619 ± 0.021 | 0.0363 ± 0.044 | 1.09 ± 0.077 | 0.989 ± 0.074 | 1.06 ± 0.044 | 1.02 ± 0.043 | 0.48 ± 0.095 | -0.212 ± 0.26 |
| C=CC(=O)Nc1cccc(Nc2nc(NC3CCC(N(C)C)CC3)nc3c2ncn3C(C)C)c1 (stereo not drawn) [WZ-3105] | 0.223 ± 0.13 | 0.0547 ± 0.14 | -0.0538 ± 0.17 | -0.207 ± 0.19 | -0.253 ± 0.18 | -0.328 ± 0.19 | -0.121 ± 0.089 | -0.138 ± 0.075 | -0.127 ± 0.097 | -0.135 ± 0.11 | -0.147 ± 0.1 | -0.143 ± 0.14 | 0.523 ± 0.12 | 0.188 ± 0.13 | -0.101 ± 0.14 | -0.224 ± 0.24 | -0.245 ± 0.25 | -0.269 ± 0.24 | -0.317 ± 0.065 | -0.303 ± 0.097 | -0.28 ± 0.11 | -0.254 ± 0.091 | -0.27 ± 0.062 | -0.296 ± 0.05 | -0.23 ± 0.13 | -0.232 ± 0.15 | -0.235 ± 0.16 | -0.237 ± 0.16 | -0.232 ± 0.12 | -0.132 ± 0.12 | -0.298 ± 0.15 | -0.287 ± 0.18 | -0.269 ± 0.18 | -0.273 ± 0.18 | -0.266 ± 0.15 | -0.227 ± 0.19 |
| COc1cc(C(=O)N2CCC(N3CCN(C)CC3)CC2)ccc1Nc1ncc2c(n1)N(C)c1ccccc1C(=O)N2C [XMD-1150] | 0.885 ± 0.11 | 0.85 ± 0.16 | 0.803 ± 0.16 | 0.722 ± 0.17 | 0.551 ± 0.12 | 0.238 ± 0.15 | 0.964 ± 0.035 | 0.913 ± 0.051 | 0.815 ± 0.034 | 0.66 ± 0.0096 | 0.411 ± 0.039 | -0.053 ± 0.089 | 0.973 ± 0.013 | 0.937 ± 0.021 | 0.841 ± 0.036 | 0.665 ± 0.078 | 0.384 ± 0.12 | 0.123 ± 0.052 | 0.852 ± 0.021 | 0.784 ± 0.014 | 0.599 ± 0.018 | 0.365 ± 0.034 | 0.201 ± 0.012 | 0.0333 ± 0.0087 | 0.891 ± 0.054 | 0.818 ± 0.088 | 0.567 ± 0.12 | 0.353 ± 0.077 | 0.189 ± 0.029 | 0.0699 ± 0.13 | 0.677 ± 0.17 | 0.669 ± 0.12 | 0.609 ± 0.12 | 0.514 ± 0.16 | 0.348 ± 0.18 | 0.0641 ± 0.18 |
| FC(F)c1nc2ccccc2n1-c1nc(N2CCOCC2)nc(N2CCOCC2)n1 [ZSTK-474] | 0.971 ± 0.029 | 0.855 ± 0.16 | 0.615 ± 0.27 | 0.211 ± 0.17 | 0.0764 ± 0.14 | -0.0662 ± 0.025 | 0.806 ± 0.017 | 0.663 ± 0.032 | 0.522 ± 0.088 | 0.394 ± 0.12 | 0.289 ± 0.1 | 0.148 ± 0.11 | 0.954 ± 0.065 | 0.842 ± 0.12 | 0.698 ± 0.16 | 0.472 ± 0.083 | 0.296 ± 0.049 | 0.179 ± 0.069 | 0.664 ± 0.2 | 0.37 ± 0.18 | 0.138 ± 0.048 | 0.0423 ± 0.065 | 0.00162 ± 0.071 | -0.0168 ± 0.11 | 0.881 ± 0.062 | 0.828 ± 0.055 | 0.728 ± 0.025 | 0.646 ± 0.061 | 0.511 ± 0.077 | 0.386 ± 0.11 | 0.783 ± 0.087 | 0.46 ± 0.06 | 0.161 ± 0.1 | 0.0252 ± 0.12 | -0.0251 ± 0.15 | -0.031 ± 0.13 |
| CN(C)C/C=C/C(=O)Nc1cc2c(Nc3ccc(F)c(Cl)c3)ncnc2cc1O[C@H]1CCOC1 [afatinib] | 0.704 ± 0.031 | 0.789 ± 0.017 | 0.814 ± 0.027 | 0.868 ± 0.059 | 0.855 ± 0.035 | 0.0471 ± 0.25 | 0.9498 ± 0.0056 | 0.944 ± 0.032 | 0.944 ± 0.021 | 0.899 ± 0.025 | 0.852 ± 0.059 | -0.152 ± 0.04 | 0.034 ± 0.14 | 0.0299 ± 0.097 | 0.034 ± 0.07 | 0.0532 ± 0.05 | 0.058 ± 0.067 | 0.0354 ± 0.032 | 0.784 ± 0.14 | 0.81 ± 0.15 | 0.865 ± 0.079 | 0.736 ± 0.11 | 0.603 ± 0.15 | -0.239 ± 0.083 | 0.845 ± 0.14 | 0.873 ± 0.047 | 0.755 ± 0.041 | 0.641 ± 0.09 | 0.537 ± 0.043 | -0.205 ± 0.11 | -0.137 ± 0.2 | -0.13 ± 0.17 | -0.117 ± 0.16 | -0.0678 ± 0.2 | -0.0514 ± 0.15 | -0.171 ± 0.11 |
| CN1CC[C@H](c2c(O)cc(O)c3c(=O)cc(-c4ccccc4Cl)oc23)[C@H](O)C1 [alvocidib] | 0.324 ± 0.32 | -0.0878 ± 0.2 | -0.251 ± 0.083 | -0.35 ± 0.19 | -0.339 ± 0.2 | -0.365 ± 0.21 | 0.48 ± 0.23 | -0.156 ± 0.1 | -0.206 ± 0.082 | -0.196 ± 0.11 | -0.193 ± 0.098 | -0.188 ± 0.11 | 0.197 ± 0.27 | -0.2 ± 0.16 | -0.288 ± 0.23 | -0.281 ± 0.24 | -0.281 ± 0.25 | -0.263 ± 0.22 | -0.0866 ± 0.19 | -0.328 ± 0.037 | -0.335 ± 0.068 | -0.359 ± 0.057 | -0.361 ± 0.077 | -0.364 ± 0.07 | 0.184 ± 0.25 | -0.239 ± 0.12 | -0.273 ± 0.13 | -0.273 ± 0.16 | -0.282 ± 0.14 | -0.287 ± 0.16 | 0.102 ± 0.038 | -0.287 ± 0.2 | -0.32 ± 0.26 | -0.367 ± 0.21 | -0.357 ± 0.22 | -0.391 ± 0.21 |
